Assay results reported in patent US8846933B2, “N-link hydroxamic acid derivatives useful as antibacterial agents” (Pfizer Inc., priority 2009, dated 2014).

Tests used:
Type in all cases: cell-based
[1] = test system: Escherichia coli EC-1: VOGEL, mouse virulent; assay: MIC determination (CLSI), strain EC-1; details: Escherichia coli EC-1, VOGEL, mouse virulent; unit assumed
Method in brief: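 The mouse-virulent VOGEL isolate of E. coli, EC-1, served as test organism. Minimum inhibitory concentration was measured by CLSI dilution methodology (M7-A7; M100-S18 standards).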

[2] = test system: Acinetobacter baumanii/haemolyticus: Multidrug-resistant clinical isolate (AB-3167); assay: MIC determination (CLSI), strain AB-3167; details: unit assumed
Method in brief: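 Using the multidrug-resistant Acinetobacter baumanii/haemolyticus clinical isolate AB-3167, minimum inhibitory concentrations were determined following CLSI dilution susceptibility standards.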

[3] = test system: Pseudomonas aeruginosa UI-18: Wild-type (PA-7); assay: MIC determination (CLSI), strain PA-7; details: Pseudomonas aeruginosa UI-18, wild-type; unit assumed
Method in brief: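 Strain tested was P. aeruginosa UI-18, a wild-type isolate labelled PA-7. Minimum inhibitory concentrations followed CLSI dilution methodology for aerobically growing bacteria (M7-A7, M100-S18).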

| Compound | EC-1 (MIC) [1] [µg/mL] | AB-3167 (MIC) [2] [µg/mL] | PA-7 (MIC) [3] [µg/mL] |
| --- | --- | --- | --- |
| Cc1ncc(-c2ccc(-c3ccn(CC[C@](C)(C(=O)NO)S(C)(=O)=O)c(=O)c3)cc2)cn1 [Example 27, (2R)-N-hydroxy-2-methyl-4-{4-[4-(2-methylpyrimidin-5-yl)phenyl]-2-oxopyridin-1(2H)-yl}-2-(methylsulfonyl)butanamide] | 16 | > 64 | 4 |
| C[C@@](CCn1ccc(-c2ccc([C@H]3C[C@H](O)C3)cc2)cc1=O)(C(=O)NO)S(C)(=O)=O [Example 6, (2R)-N-hydroxy-4-{4-[4-(trans-3-hydroxycyclobutyl)phenyl]-2-oxopyridin-1(2H)-yl}-2-methyl-2-(methylsulfonyl)butanamide] | 4 | > 64 | 4 |
| C[C@@](CCn1ccc(-c2ccc(C(F)(F)F)cc2)cc1=O)(C(=O)NO)S(C)(=O)=O [Example 68-I, (2R)-N-hydroxy-2-methyl-2-(methylsulfonyl)-4-{2-oxo-4-[4-(trifluoromethyl)phenyl]pyridin-1(2H)-yl}butanamide] | 1 | > 64 | 1 |
| C[C@@](CCn1ccc(C2=CCCCCC2)cc1=O)(C(=O)NO)S(C)(=O)=O [Example 68-L, (2R)-4-(4-cyclohept-1-en-1-yl-2-oxopyridin-1(2H)-yl)-N-hydroxy-2-methyl-2-(methylsulfonyl)butanamide] | 2 | > 64 | 1 |
| CC1(O)CCC(Oc2ccc(-c3ccn(CC[C@](C)(C(=O)NO)S(C)(=O)=O)c(=O)c3)cc2F)CC1 (stereo partly drawn) [Example 10-I, (2R)-4-[4-{3-fluoro-4-[(4-hydroxy-4-methylcyclohexyl)oxy]phenyl}-2-oxopyridin-1(2H)-yl]-N-hydroxy-2-methyl-2-(methylsulfonyl)butanamide] | 0.5 | > 64 | 2 |
| Cc1ccc(-c2ccn(CC[C@](C)(C(=O)NO)S(C)(=O)=O)c(=O)c2)cc1 [Example 16, (2R)-N-hydroxy-2-methyl-4-[4-(4-methylphenyl)-2-oxopyridin-1(2H)-yl]-2-(methylsulfonyl)butanamide] | 0.5 | > 64 | 0.5 |
| C[C@@](CCn1ccc(-c2ccc(F)c(F)c2F)cc1=O)(C(=O)NO)S(C)(=O)=O [Example 50, (2R)-N-hydroxy-2-methyl-2-(methylsulfonyl)-4-[2-oxo-4-(2,3,4-trifluorophenyl)pyridin-1(2H)-yl]butanamide] | 0.5 | 64 | 0.5 |
| CC(C)(O)COc1ccc(-c2ccn(CCC(C)(C(=O)NO)S(C)(=O)=O)c(=O)c2)cc1 (stereo not drawn) [Example 10-J, N-hydroxy-4-{4-[4-(2-hydroxy-2-methylpropoxy)phenyl]-2-oxopyridin-1(2H)-yl}-2-methyl-2-(methylsulfonyl)butanamide] | 4 | > 64 | 8 |
| C[C@@](CCn1ccc(C#Cc2ccccc2)cc1=O)(C(=O)NO)S(C)(=O)=O [Example 65, (2R)-N-Hydroxy-2-methyl-2-(methylsulfonyl)-4-[2-oxo-4-(phenylethynyl)pyridin-1(2H)-yl]butanamide] | 0.125 | 64 | 0.5 |
| CC(CCn1ccc(-c2ccc(OC3CC(CO)C3)cc2)cc1=O)(C(=O)NO)S(C)(=O)=O (stereo not drawn) [Example 10-F, N-hydroxy-4-[4-(4-{[3-(hydroxymethyl)cyclobutyl]oxy}phenyl)-2-oxopyridin-1(2H)-yl]-2-methyl-2-(methylsulfonyl)butanamide] | 0.5 | 64 | 2 |
| C[C@@](CCn1ccc(-c2c(F)ccc(F)c2F)cc1=O)(C(=O)NO)S(C)(=O)=O [Example 22, (2R)-N-hydroxy-2-methyl-2-(methylsulfonyl)-4-[2-oxo-4-(2,3,6-trifluorophenyl)pyridin-1(2H)-yl]butanamide] | 2 | > 64 | 4 |
| Cn1nccc1-c1ccc(-c2ccn(CC[C@](C)(C(=O)NO)S(C)(=O)=O)c(=O)c2)cc1 [Example 24, (2R)-N-hydroxy-2-methyl-4-{4-[4-(1-methyl-1H-pyrazol-5-yl)phenyl]-2-oxopyridin-1(2H)-yl}-2-(methylsulfonyl)butanamide] | 1 | > 64 | 2 |
| Cc1nccc(-c2ccc(-c3ccn(CC[C@](C)(C(=O)NO)S(C)(=O)=O)c(=O)c3)cc2)n1 [Example 23, (2R)-N-hydroxy-2-methyl-4-{4-[4-(2-methylpyrimidin-4-yl)phenyl]-2-oxopyridin-1(2H)-yl}-2-(methylsulfonyl)butanamide] | 2 | > 64 | 2 |
| C[C@@](CCn1ccc(-c2ccc(OC[C@H]3CC[C@H](O)CC3)cc2)cc1=O)(C(=O)NO)S(C)(=O)=O [Example 9, (2R)-N-hydroxy-4-[4-{4-[(trans-4-hydroxycyclohexyl)methoxy]phenyl}-2-oxopyridin-1(2H)-yl]-2-methyl-2-(methylsulfonyl)butanamide] | 0.25 | 32 | 1 |
| Cn1c(-c2ccn(CCC(C)(C(=O)NO)S(C)(=O)=O)c(=O)c2)cc2ccccc21 (stereo not drawn) [Example 68-R, N-hydroxy-2-methyl-4-[4-(1-methyl-1H-indol-2-yl)-2-oxopyridin-1(2H)-yl]-2-(methylsulfonyl)butanamide] | 4 | > 64 | 8 |
| C[C@@](CCn1cc(F)c(-c2ccccc2)cc1=O)(C(=O)NO)S(C)(=O)=O [Example 56, (2R)-4-(5-fluoro-2-oxo-4-phenylpyridin-1(2H)-yl)-N-hydroxy-2-methyl-2-(methylsulfonyl)butanamide] | 4 | > 64 | 1 |
| CC(CCn1ccc(-c2ccc(OCCc3ccncc3)cc2)cc1=O)(C(=O)NO)S(C)(=O)=O (stereo not drawn) [Example 37, N-hydroxy-2-methyl-2-(methylsulfonyl)-4-{2-oxo-4-[4-(2-pyridin-4-ylethoxy)phenyl]pyridin-1(2H)-yl}butanamide] | 0.5 | > 64 | 4 |
| C[C@@](CCn1ccc(-c2ccc(N3CCC(CO)CC3)cc2)cc1=O)(C(=O)NO)S(C)(=O)=O [Example 61, (2R)-N-hydroxy-4-[4-{4-[4-(hydroxymethyl)piperidin-1-yl]phenyl}-2-oxopyridin-1(2H)-yl]-2-methyl-2-(methylsulfonyl)butanamide] | 64 | > 64 | 2 |
| C[C@@](CCn1ccc(-c2ccc(Cl)c(F)c2)cc1=O)(C(=O)NO)S(C)(=O)=O [Example 68-B, (2R)-4-[4-(4-chloro-3-fluorophenyl)-2-oxopyridin-1(2H)-yl]-N-hydroxy-2-methyl-2-(methylsulfonyl)butanamide] | 0.5 | > 64 | 0.5 |
| C[C@@](CCn1ccc(-c2ccc(-n3nccn3)cc2)cc1=O)(C(=O)NO)S(C)(=O)=O [Example 40, (2R)-N-hydroxy-2-methyl-2-(methylsulfonyl)-4-{2-oxo-4-[4-(2H-1,2,3-triazol-2-yl)phenyl]pyridin-1(2H)-yl}butanamide] | 0.03 | > 64 | 0.25 |
| C[C@@](CCn1ccc(-c2ccc(OC(F)F)cc2F)cc1=O)(C(=O)NO)S(C)(=O)=O [Example 28, (2R)-4-{4-[4-(difluoromethoxy)-2-fluorophenyl]-2-oxopyridin-1(2H)-yl}-N-hydroxy-2-methyl-2-(methylsulfonyl)butanamide] | 0.25 | > 64 | 0.5 |
| C[C@@](CCn1ccc(-c2cccc(Cl)c2Cl)cc1=O)(C(=O)NO)S(C)(=O)=O [Example 46, (2R)-4-[4-(2,3-dichlorophenyl)-2-oxopyridin-1(2H)-yl]-N-hydroxy-2-methyl-2-(methylsulfonyl)butanamide] | 0.25 | > 64 | 0.5 |
| COc1ccc(-c2ccn(CC[C@](C)(C(=O)NO)S(C)(=O)=O)c(=O)c2)c(F)c1 [Example 21, (2R)-4-[4-(2-fluoro-4-methoxyphenyl)-2-oxopyridin-1(2H)-yl]-N-hydroxy-2-methyl-2-(methylsulfonyl)butanamide] | 0.125 | 32 | 0.25 |
| CC(C)(O)CCCOc1ccc(-c2ccn(CCC(C)(C(=O)NO)S(C)(=O)=O)c(=O)c2)cc1 (stereo not drawn) [Example 10-E, N-hydroxy-4-[4-{4-[(4-hydroxy-4-methylpentyl)oxy]phenyl}-2-oxopyridin-1(2H)-yl]-2-methyl-2-(methylsulfonyl)butanamide] | 0.5 | > 64 | 2 |
| CC1(O)CC(COc2ccc(-c3ccn(CC[C@](C)(C(=O)NO)S(C)(=O)=O)c(=O)c3)cc2)C1 (stereo partly drawn) [Example 10-B, (2R)-N-hydroxy-4-[4-{4-[(3-hydroxy-3-methylcyclobutyl)methoxy]phenyl}-2-oxopyridin-1(2H)-yl]-2-methyl-2-(methylsulfonyl)butanamide] | 0.5 | > 64 | 1 |
| C[C@@](CCn1ccc(-c2ccc(-c3nccs3)cc2)cc1=O)(C(=O)NO)S(C)(=O)=O [Example 68-D, (2R)-N-hydroxy-2-methyl-2-(methylsulfonyl)-4-{2-oxo-4-[4-(1,3-thiazol-2-yl)phenyl]pyridin-1(2H)-yl}butanamide] | 0.06 | > 64 | 0.5 |
